Measurements reported in patent publication US20230081426A1, “COMPOUNDS AND METHODS FOR KRAS MODULATION AND INDICATIONS THEREFOR” (Plexxikon Inc., priority 2020, published 2023).
Like-named read-outs stand apart in the source and are kept apart here.

Key:
[1] = molecular target: T1, G12C-mutant human KRAS (amino acid residues 1-188) (Homo sapiens, UniProt P01116, G12C); assay: KRAS Binding Disruption Assay (AlphaScreen; biotinylated KRpep-2d analogue or RAF1-RBD), G12C; details: geometric mean, read-out: KRAS GMean IC50 (uM) MUTATION: G12C
T1 construct: G12D or G12C-mutant human KRAS (amino acid residues 1-188) with FLAG tag; made in house; host or cells: E. coli
Procedure, shortened: (§1)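 AlphaScreen readout: signal falls as compound displaces biotinylated KRpep-2d analogue or RAF1-RBD from mutant KRAS. Both partners at 5-20 nM, 1 h binding at 25° C, then 10 μg/mL Anti-Flag acceptor and streptavidin donor beads for 1 h. IC50 by nonlinear regression of % inhibition.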

[2] = molecular target: T2, G12D-mutant human KRAS (amino acid residues 1-188) (Homo sapiens, UniProt P01116, G12D); assay: KRAS Binding Disruption Assay (AlphaScreen; biotinylated KRpep-2d analogue or RAF1-RBD), G12D; details: for IC50: geometric mean, read-out: KRAS GMean IC50 (uM) MUTATION: G12D
T2 construct: G12D or G12C-mutant human KRAS (amino acid residues 1-188) with FLAG tag; made in house; host or cells: E. coli
Procedure, shortened: as §1

[3] = molecular target: T3, G12V-mutant human KRAS (amino acid residues 1-188) (Homo sapiens, UniProt P01116, G12V); assay: KRAS Binding Competition Assay (AlphaScreen; biotinylated KRpep-2d analogue), G12V; details: geometric mean, read-out: KRAS GMean IC50 (uM) MUTATION: G12V
T3 construct: G12V-mutant human KRAS (amino acid residues 1-188) with FLAG tag was purified from E. coli; made in house; host or cells: E. coli

Compound	IC50 [1]	IC50 ([2]; KRAS G12D)	Improved KRAS G12D Biochemical Potency of Compounds with Bridged vs Non-Bridged R^1 Groups ([2]; Table 3, fold more potent than non-bridged version at the R1 variable)	IC50 ([2]; Table 3, bridged vs non-bridged R1)	IC50 [3]
CN1CCC[C@H]1COc1nc(N2C[C@H]3CC[C@@H](C2)N3)c2cc(Cl)c(-c3c(O)cccc3F)c(F)c2n1 [P-0027, 2-(4-((1R,5S)-3,8-diazabicyclo[3.2.1]octan-3-yl)-6-chloro-8-fluoro-2-(((S)-1-methylpyrrolidin-2-yl)methoxy)quinazolin-7-yl)-3-fluorophenol]	10 to 100 µM	0.0001 to 10 µM	P-0027 is about 392 times more potent than its non- bridged version at the R^1 variable.	0.038 µM	10 to 100 µM
CN1CCC[C@H]1COc1nc(N2CC3CCC2CN3)c2cc(Cl)c(-c3cc(O)cc4ccccc34)c(F)c2n1 (stereo partly drawn) [P-0030, 4-(4-(2,5-diazabicyclo[2.2.2]octan-2-yl)-6-chloro-8-fluoro-2-(((S)-1-methylpyrrolidin-2-yl)methoxy)quinazolin-7-yl)naphthalen-2-ol]	10 to 100 µM	0.0001 to 10 µM			10 to 100 µM
CN1CCC(Oc2nc(N3C[C@H]4CC[C@@H](C3)N4)c3cc(Cl)c(-c4cc(O)cc5ccccc45)c(F)c3n2)CC1 [P-0032, 4-(4-((1R,5S)-3,8-diazabicyclo[3.2.1]octan-3-yl)-6-chloro-8-fluoro-2-((1-methylpiperidin-4-yl)oxy)quinazolin-7-yl)naphthalen-2-ol]	10 to 100 µM	0.0001 to 10 µM			10 to 100 µM
Oc1cc(-c2c(Cl)cc3c(N4C[C@H]5CC[C@@H](C4)N5)nc(OCC45CCCN4CCC5)nc3c2F)c2ccccc2c1 [P-0034, 4-(4-((1R,5S)-3,8-diazabicyclo[3.2.1]octan-3-yl)-6-chloro-8-fluoro-2-((tetrahydro-1H-pyrrolizin-7a(5H)-yl)methoxy)quinazolin-7-yl)naphthalen-2-ol]	0.0001 to 10 µM	0.0001 to 10 µM			0.0001 to 10 µM
CN1CCC[C@H]1COc1nc(N2C[C@H]3CC[C@@H](C2)N3)c2ccc(-c3cc(O)cc4ccccc34)cc2n1 [P-0037, 4-(4-((1R,5S)-3,8-diazabicyclo[3.2.1]octan-3-yl)-2-(((S)-1-methylpyrrolidin-2-yl)methoxy)quinazolin-7-yl)naphthalen-2-ol]	0.0001 to 10 µM	0.0001 to 10 µM			0.0001 to 10 µM
CN1CCC[C@H]1COc1nc(N2CC3CC2CN3)c2cc(Cl)c(-c3cc(O)cc4ccccc34)c(F)c2n1 (stereo partly drawn) [P-0038, 4-(4-(2,5-diazabicyclo[2.2.1]heptan-2-yl)-6-chloro-8-fluoro-2-(((S)-1-methylpyrrolidin-2-yl)methoxy)quinazolin-7-yl)naphthalen-2-ol]	10 to 100 µM	0.0001 to 10 µM			10 to 100 µM
CN1CCC[C@H]1COc1nc(N2C[C@H]3CC[C@@H](C2)N3)c2ccc(-c3cc(O)cc4ccccc34)c(F)c2n1 [P-0044, 4-(4-((1R,5S)-3,8-diazabicyclo[3.2.1]octan-3-yl)-8-fluoro-2-(((S)-1-methylpyrrolidin-2-yl)methoxy)quinazolin-7-yl)naphthalen-2-ol]	0.0001 to 10 µM	0.0001 to 10 µM			0.0001 to 10 µM
Oc1cc(-c2ccc3c(N4C[C@H]5CC[C@@H](C4)N5)nc(OCC45CCCN4CCC5)nc3c2F)c2ccccc2c1 [P-0048, 4-(4-((1R,5S)-3,8-diazabicyclo[3.2.1]octan-3-yl)-8-fluoro-2-((tetrahydro-1H-pyrrolizin-7a(5H)-yl)methoxy)quinazolin-7-yl)naphthalen-2-ol]	0.0001 to 10 µM	0.0001 to 10 µM			0.0001 to 10 µM
Oc1cccc(F)c1-c1ccc2c(N3C[C@H]4CC[C@@H](C3)N4)nc(OCC34CCCN3CCC4)nc2c1F [P-0049, 2-(4-((1R,5S)-3,8-diazabicyclo[3.2.1]octan-3-yl)-8-fluoro-2-((tetrahydro-1H-pyrrolizin-7a(5H)-yl)methoxy)quinazolin-7-yl)-3-fluorophenol]	10 to 100 µM	0.0001 to 10 µM			100 to 1000 µM
Oc1cc(-c2ccc3c(C4C[C@H]5CC[C@@H](C4)N5)nc(OCC45CCCN4CCC5)nc3c2)c2ccccc2c1 (stereo partly drawn) [P-0053, 4-(4-((1R,5S)-8-azabicyclo[3.2.1]octan-3-yl)-2-((tetrahydro-1H-pyrrolizin-7a(5H)-yl)methoxy)quinazolin-7-yl)naphthalen-2-ol]	10 to 100 µM	0.0001 to 10 µM			10 to 100 µM
Oc1cc(-c2ncc3c(N4C[C@H]5CC[C@@H](C4)N5)nc(OCC45CCCN4CCC5)nc3c2F)c2ccccc2c1 [P-0055, 4-(4-((1R,5S)-3,8-diazabicyclo[3.2.1]octan-3-yl)-8-fluoro-2-((tetrahydro-1H-pyrrolizin-7a(5H)-yl)methoxy)pyrido[4,3-d]pyrimidin-7-yl)naphthalen-2-ol]	0.0001 to 10 µM	0.0001 to 10 µM			0.0001 to 10 µM
CN1CCC[C@H]1COc1nc(N2C[C@H]3CC[C@@H](C2)N3)c2cc(CO)c(-c3cc(O)cc4ccccc34)c(F)c2n1 [P-0056, 4-[4-(3,8-diazabicyclo[3.2.1]octan-3-yl)-8-fluoro-6-(hydroxymethyl)-2-[[(2S)-1-methylpyrrolidin-2-yl]methoxy]quinazolin-7-yl]naphthalen-2-ol]	0.0001 to 10 µM	0.0001 to 10 µM			0.0001 to 10 µM
CO[C@@H]1C[C@@H](COc2nc(N3C[C@H]4CC[C@@H](C3)N4)c3ccc(-c4cc(O)cc5ccccc45)cc3n2)N(C)C1 [P-0060, 4-(4-((1R,5S)-3,8-diazabicyclo[3.2.1]octan-3-yl)-2-(((2S,4R)-4-methoxy-1-methylpyrrolidin-2-yl)methoxy)quinazolin-7-yl)naphthalen-2-ol]	0.0001 to 10 µM	0.0001 to 10 µM			0.0001 to 10 µM
CCC(=O)N1[C@@H]2CC[C@H]1CN(c1nc(OCC34CCCN3CCC4)nc3cc(-c4cc(O)cc5ccccc45)ccc13)C2 [P-0063, 1-((1R,5S)-3-(7-(3-hydroxynaphthalen-1-yl)-2-((tetrahydro-1H-pyrrolizin-7a(5H)-yl)methoxy)quinazolin-4-yl)-3,8-diazabicyclo[3.2.1]octan-8-yl)propan-1-one]	0.0001 to 10 µM	0.0001 to 10 µM			0.0001 to 10 µM
O=C(O)CCC(=O)N1[C@@H]2CC[C@H]1CN(c1nc(OCC34CCCN3CCC4)nc3cc(-c4cc(O)cc5ccccc45)ccc13)C2 [P-0064, 4-((1R,5S)-3-(7-(3-hydroxynaphthalen-1-yl)-2-((tetrahydro-1H-pyrrolizin-7a(5H)-yl)methoxy)quinazolin-4-yl)-3,8-diazabicyclo[3.2.1]octan-8-yl)-4-oxobutanoic acid]	0.0001 to 10 µM	0.0001 to 10 µM			0.0001 to 10 µM
O=C(c1ccccn1)N1[C@@H]2CC[C@H]1CN(c1nc(OCC34CCCN3CCC4)nc3cc(-c4cc(O)cc5ccccc45)ccc13)C2 [P-0065, ((1R,5S)-3-(7-(3-hydroxynaphthalen-1-yl)-2-((tetrahydro-1H-pyrrolizin-7a(5H)-yl)methoxy)quinazolin-4-yl)-3,8-diazabicyclo[3.2.1]octan-8-yl)(pyridin-2-yl)methanone]	0.0001 to 10 µM	10 to 100 µM			0.0001 to 10 µM
CN(C)CC(=O)N1[C@@H]2CC[C@H]1CN(c1nc(OCC34CCCN3CCC4)nc3cc(-c4cc(O)cc5ccccc45)ccc13)C2 [P-0066, 2-(dimethylamino)-1-((1R,5S)-3-(7-(3-hydroxynaphthalen-1-yl)-2-((tetrahydro-1H-pyrrolizin-7a(5H)-yl)methoxy)quinazolin-4-yl)-3,8-diazabicyclo[3.2.1]octan-8-yl)ethan-1-one]	0.0001 to 10 µM	0.0001 to 10 µM			0.0001 to 10 µM
NC(=O)N1[C@@H]2CC[C@H]1CN(c1nc(OCC34CCCN3CCC4)nc3cc(-c4cc(O)cc5ccccc45)ccc13)C2 [P-0067, (1R,5S)-3-(7-(3-hydroxynaphthalen-1-yl)-2-((tetrahydro-1H-pyrrolizin-7a(5H)-yl)methoxy)quinazolin-4-yl)-3,8-diazabicyclo[3.2.1]octane-8-carboxamide]	0.0001 to 10 µM	0.0001 to 10 µM			0.0001 to 10 µM
COC(=O)CCC(=O)N1[C@@H]2CC[C@H]1CN(c1nc(OCC34CCCN3CCC4)nc3cc(-c4cc(O)cc5ccccc45)ccc13)C2 [P-0068, methyl 4-((1R,5S)-3-(7-(3-hydroxynaphthalen-1-yl)-2-((tetrahydro-1H-pyrrolizin-7a(5H)-yl)methoxy)quinazolin-4-yl)-3,8-diazabicyclo[3.2.1]octan-8-yl)-4-oxobutanoate]	0.0001 to 10 µM	0.0001 to 10 µM			0.0001 to 10 µM
Cc1cccc2cc(O)cc(-c3ccc4c(N5C[C@H]6CC[C@@H](C5)N6)nc(OCC56CCCN5CCC6)nc4c3F)c12 [P-0085, 4-(4-((1R,5S)-3,8-diazabicyclo[3.2.1]octan-3-yl)-8-fluoro-2-((tetrahydro-1H-pyrrolizin-7a(5H)-yl)methoxy)quinazolin-7-yl)-5-methylnaphthalen-2-ol]	0.0001 to 10 µM	0.0001 to 10 µM			0.0001 to 10 µM
Cc1cccc2cc(O)cc(-c3c(F)cc4c(N5C[C@H]6CC[C@@H](C5)N6)nc(OCC56CCCN5CCC6)nc4c3F)c12 [P-0088, 4-(4-((1R,5S)-3,8-diazabicyclo[3.2.1]octan-3-yl)-6,8-difluoro-2-((tetrahydro-1H-pyrrolizin-7a(5H)-yl)methoxy)quinazolin-7-yl)-5-methylnaphthalen-2-ol]	0.0001 to 10 µM	0.0001 to 10 µM			0.0001 to 10 µM
